Seven compounds from the supplement of paper PMC5722580 can be followed below.

In one assay the test system is NK-YS. As to the kind of experiment: drug sensitivity score (viability inhibition); higher = more sensitive. The settings on record: 72 h; IL2 2.5 ng/ml. The essentials: (§1)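 NK cell lines were plated at 3 000 cells/well into 384-well drug plates with 5-8 concentrations across a 10 000-fold range, in complete RPMI with 2.5 ng/ml IL2. Viability was read with CellTiter-Glo after 72 h at 37 °C, 5% CO2. The drug sensitivity score used here is an optimized area under the dose-response curve.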

The test system of another assay is NKL. The description is as above. The conditions noted are these: 72 h; IL2 2.5 ng/ml. The essentials: as §1
The test system of a further assay is KAI3. Described as above. The settings on record: 72 h; IL2 2.5 ng/ml. The essentials: as §1
Another assay has as its system NK-92. Described as above. The conditions noted are these: 72 h; IL2 2.5 ng/ml. In short, it runs like this:
as §1

Another assay has as its system SNK6. The description is as above. The conditions noted are these: 72 h; IL2 2.5 ng/ml. In short, it runs like this:
as §1

The next assay has as its system YT. Described as above. The settings on record: 72 h; IL2 2.5 ng/ml. In short, it runs like this:
as §1

A further assay has as its system KHYG-1. Described as above. The conditions noted are these: 72 h; IL2 2.5 ng/ml. In short, it runs like this: as §1
In the next assay the test system is HEK293-SIE STAT3 WT. The assay is described as follows: drug sensitivity score (inhibition of STAT3 luciferase reporter); higher = stronger inhibition. The settings on record: 6 h; STAT3: WT; IL6 100 ng/ml. In short, it runs like this:
(§2)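 Scores are optimized areas under reporter-inhibition dose-response curves. They come from HEK293 cells with a STAT3-driven sis-inducible element luciferase reporter and lentivirally introduced wild-type or mutant STAT3, plated at 10 000 cells/well in 384-well plates, with IL6 (100 ng/ml) given to wild-type cells only. After 6 h with drug at 5-8 concentrations across a 10 000-fold range, luciferase was read with ONE-Glo, and results from two experiments were averaged.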

A further assay deals with HEK293-SIE STAT3 Y640F. The assay is described as above. The settings on record: 6 h; IL6 0 ng/ml. In short, it runs like this:
as §2

As to `NC1(c2ccc(-c3nc4ccn5c(=O)[nH]nc5c4cc3-c3ccccc3)cc2)CCC1` [MK-2206], the drug sensitivity score in the assay with NK-YS stood at 5 DSS; in the assay with NKL it was 4.44 DSS; in the assay on KAI3, 6.43 DSS; in the assay with NK-92 it was 6.29 DSS; in the assay with SNK6, 2.89 DSS; with YT it was 2.45 DSS. Further, the drug sensitivity score with KHYG-1 was 4.1 DSS; in the assay on HEK293-SIE STAT3 WT it was 5.85 DSS; with HEK293-SIE STAT3 Y640F, 0 DSS.
On to `C[C@]12C=CC(=O)C=C1CC[C@@H]1[C@@H]2[C@@H](O)C[C@@]2(C)[C@H]1CC[C@]2(O)C(=O)CO` [Prednisolone], for which the drug sensitivity score with NK-YS turned out to be 1.37 DSS; in the assay with NKL it was 11 DSS; in the assay with KAI3 it was 0 DSS; in the assay on NK-92, 0 DSS; with SNK6 it was 2.12 DSS; in the assay with YT it was 5.05 DSS. Further, the drug sensitivity score with KHYG-1 came out at 6.65 DSS; in the assay with HEK293-SIE STAT3 WT, 0 DSS; in the assay with HEK293-SIE STAT3 Y640F, 0 DSS.
Take `NS(=O)(=O)c1cccc2c1C(=O)c1cccc(O)c1C2=O` [LLL12]: the drug sensitivity score with NK-YS turned out to be 15 DSS; in the assay on NKL, 24.9 DSS; in the assay on KAI3 it was 18.9 DSS; in the assay with NK-92 it was 23.1 DSS; with SNK6, 28 DSS; in the assay with YT, 18.2 DSS. In addition, the drug sensitivity score with KHYG-1 turned out to be 22.9 DSS; in the assay with HEK293-SIE STAT3 WT, 17.1 DSS; in the assay on HEK293-SIE STAT3 Y640F, 12.4 DSS.
As for `Cc1sc2c(c1C)C(c1ccc(Cl)cc1)=N[C@@H](CC(=O)OC(C)(C)C)c1nnc(C)n1-2` [(+)-JQ1], the drug sensitivity score in the assay on NK-YS came to 15.9 DSS; with NKL, 13.7 DSS; with KAI3, 4.93 DSS; with NK-92, 3.16 DSS; in the assay with SNK6 it was 12.4 DSS; in the assay with YT it was 11.1 DSS. The drug sensitivity score with KHYG-1 amounted to 18.9 DSS; in the assay with HEK293-SIE STAT3 WT, 16.6 DSS; in the assay on HEK293-SIE STAT3 Y640F it was 0 DSS.
For the compound `CC1(COc2ccc3c(c2)ncn3-c2ccc3cccc(N4CCC(N)CC4)c3n2)COC1` [Crenolanib], the drug sensitivity score with NK-YS is 7.55 DSS; in the assay with NKL, 10.3 DSS; with KAI3 it was 5.4 DSS; with NK-92, 9.79 DSS; with SNK6, 9.96 DSS; with YT, 7.98 DSS. The figures for the drug sensitivity score in the assay with KHYG-1, with HEK293-SIE STAT3 WT and with HEK293-SIE STAT3 Y640F were 7.73 DSS, 3.05 DSS and 4.25 DSS, respectively.
Turning to `CC1(C)CCC(CN2CCN(c3ccc(C(=O)NS(=O)(=O)c4ccc(NCC5CCOCC5)c([N+](=O)[O-])c4)c(Oc4cnc5[nH]ccc5c4)c3)CC2)=C(c2ccc(Cl)cc2)C1` [Venetoclax], the drug sensitivity score with NK-YS is 10.3 DSS; with NKL it was 11.9 DSS; with KAI3, 29.2 DSS; with NK-92, 3.59 DSS; in the assay on SNK6 it was 24.9 DSS; with YT, 11.6 DSS. In addition, the drug sensitivity score with KHYG-1 worked out at 9.65 DSS; in the assay on HEK293-SIE STAT3 WT, 0.9 DSS; with HEK293-SIE STAT3 Y640F it was 1.5 DSS.
For the compound `O=C(Cc1ccc(-c2ccc(OCCN3CCOCC3)cc2)cn1)NCc1ccccc1` [KX2-391], the drug sensitivity score was determined as 28.1 DSS with NK-YS; 31.2 DSS with NKL; 22.4 DSS in the assay with KAI3; 32.4 DSS with NK-92; 31.7 DSS in the assay with SNK6; 31.7 DSS with YT. Besides, the drug sensitivity score worked out at 31.6 DSS with KHYG-1, 0 DSS in the assay on HEK293-SIE STAT3 WT and 0 DSS in the assay with HEK293-SIE STAT3 Y640F.
